Laboratory results published in patent publication US12319709B2, “Diaryl trehalose compounds and uses thereof” (THE UNIVERSITY OF MONTANA, priority 2018, dated 2025).

What was measured:
RAW264.7 cells = test: Cytokine (TNFα) response of mouse macrophage cell line; Table 2 'Murine'; assay type: cell-based; set-up: Maximum cytokine response Murine: unit not given here; settings: NR = no response
Protocol: Compounds were also tested in a mouse macrophage cell line (FIG. 4B). RAW264.7 cells were subjected to increasing concentrations of the compounds and assessed for production of the cytokine TNFα.

[1] = test system: peripheral blood mononuclear cells (PBMCs); test: IL-6 induction in fresh human PBMCs; assay type: cell-based; settings: human IL-6; NR = no response
Protocol: Tumor necrosis factor alpha (TNFα) and IL-6 production in peripheral blood mononuclear cells (PBMCs) was measured after exposure to various concentrations of the DAT compounds synthesized as shown above. Initial studies focused on two different methods of delivery of the DAT compounds to PBMC cultures. In the first delivery method, the indicated derivative compound was dissolved in isopropanol, serially diluted, and then dried to the bottom of a tissue culture plate. In the second delivery method, the indicated derivative compound was dissolved in DMSO and serially diluted into tissue culture media. In each method, PBMCs were added to the compounds and incubated at 37° C. TNFα (FIG. 1A) and IL-6 (FIG. 1B) were measured after 18-24 hours after treatment by ELISA assay.
The isolated PBMCs were exposed to increasing concentrations of the indicated compounds resuspended in DMSO and serially diluted in media. IL-6 levels were determined from supernatants eighteen hours after treatment (FIG. 3).

| SMILES | Maximum cytokine response Murine (RAW264.7 cells) | Minimal Effective Concentration Murine (RAW264.7 cells) | Maximum cytokine response h-IL-6 [1] | Minimal Effective Concentration h-IL-6 [1] |
| --- | --- | --- | --- | --- |
| CCCCCCCCCCOc1cc(OCCCCCCCCCC)cc(C(=O)OC[C@H]2O[C@H](O[C@H]3O[C@H](COC(=O)c4cc(OCCCCCCCCCC)cc(OCCCCCCCCCC)c4)[C@@H](O)[C@H](O)[C@H]3O)[C@H](O)[C@@H](O)[C@@H]2O)c1 [UM1094] | <.001 | 3.4 µM | 3.4 OD | 1.2 µM |
| CCCOc1cc(C(=O)OC[C@H]2O[C@H](O[C@H]3O[C@H](COC(=O)c4cc(OCCC)c(OCCC)c(OCCC)c4)[C@@H](O)[C@H](O)[C@H]3O)[C@H](O)[C@@H](O)[C@@H]2O)cc(OCCC)c1OCCC [UM1095] | 0.001 | 3.4 µM | 3.3 OD | 3.7 µM |
| CCCCOc1cc(C(=O)OC[C@H]2O[C@H](O[C@H]3O[C@H](COC(=O)c4cc(OCCCC)c(OCCCC)c(OCCCC)c4)[C@@H](O)[C@H](O)[C@H]3O)[C@H](O)[C@@H](O)[C@@H]2O)cc(OCCCC)c1OCCCC [UM1096] | 0.005 | 3 µM | 3.2 OD | 2.5 µM |
| CCCCCCOc1cc(C(=O)OC[C@H]2O[C@H](O[C@H]3O[C@H](COC(=O)c4cc(OCCCCCC)c(OCCCCCC)c(OCCCCCC)c4)[C@@H](O)[C@H](O)[C@H]3O)[C@H](O)[C@@H](O)[C@@H]2O)cc(OCCCCCC)c1OCCCCCC [UM1097] | 0.005 | 3.4 µM | 3.3 OD | 3.7 µM |
| CCCCCCCCOc1cc(C(=O)OC[C@H]2O[C@H](O[C@H]3O[C@H](COC(=O)c4cc(OCCCCCCCC)c(OCCCCCCCC)c(OCCCCCCCC)c4)[C@@H](O)[C@H](O)[C@H]3O)[C@H](O)[C@@H](O)[C@@H]2O)cc(OCCCCCCCC)c1OCCCCCCCC [UM1098] | 0.04 | 3.4 µM | 3.4 OD | 11 µM |
| CCCCCCCCCCOc1cc(C(=O)OC[C@H]2O[C@H](O[C@H]3O[C@H](COC(=O)c4cc(OCCCCCCCCCC)c(OCCCCCCCCCC)c(OCCCCCCCCCC)c4)[C@@H](O)[C@H](O)[C@H]3O)[C@H](O)[C@@H](O)[C@@H]2O)cc(OCCCCCCCCCC)c1OCCCCCCCCCC [UM1099] | 0.005 | 3.4 µM | 3.2 OD | 11 µM |
| CCOc1cc(C(=O)NC[C@H]2O[C@H](O[C@H]3O[C@H](CNC(=O)c4cc(OCC)c(OCC)c(OCC)c4)[C@@H](O)[C@H](O)[C@H]3O)[C@H](O)[C@@H](O)[C@@H]2O)cc(OCC)c1OCC [UM1110] | 11 | 2.5 µM | 1 OD | 100 µM |
| CCCCCOc1cc(OCCCCC)cc(C(=O)NC[C@H]2O[C@H](O[C@H]3O[C@H](CNC(=O)c4cc(OCCCCC)cc(OCCCCC)c4)[C@@H](O)[C@H](O)[C@H]3O)[C@H](O)[C@@H](O)[C@@H]2O)c1 [UM1111] | 0.13 | 3.3 µM | 2.5 OD | 33.3 µM |
| Cc1cc(C(C)(C)C)cc(C)c1C(=O)OC[C@H]1O[C@H](O[C@H]2O[C@H](COC(=O)c3c(C)cc(C(C)(C)C)cc3C)[C@@H](O)[C@H](O)[C@H]2O)[C@H](O)[C@@H](O)[C@@H]1O [UM1116] | 0.005 | 3 µM | 2.3 OD | 100 µM |
| CC(C)(C)CC(C)(C)c1ccc(O)c(C(=O)OC[C@H]2O[C@H](O[C@H]3O[C@H](COC(=O)c4cc(C(C)(C)CC(C)(C)C)ccc4O)[C@@H](O)[C@H](O)[C@H]3O)[C@H](O)[C@@H](O)[C@@H]2O)c1 [UM1117] | 11 | 3 µM | 9 OD | 33.3 µM |
